Test results: US11912701B2, “Protein kinase inhibitors for promoting liver regeneration or reducing or preventing hepatocyte death” (HEPAREGENIX GMBH, priority 2018, dated 2024)

What was measured:
Type in all cases: biochemical
MKK4 = target: T1, MKK4 (Homo sapiens, UniProt P45985); assay: 33PanQinase enzyme assay, MKK4; conditions: for IC50: read-out: Potency MKK4 (IC50)
T1 construct: purchased ProQinase GmbH, Freiburg, Germany (33PanQinase Assay Service)
T1 sequence (P45985 1-399): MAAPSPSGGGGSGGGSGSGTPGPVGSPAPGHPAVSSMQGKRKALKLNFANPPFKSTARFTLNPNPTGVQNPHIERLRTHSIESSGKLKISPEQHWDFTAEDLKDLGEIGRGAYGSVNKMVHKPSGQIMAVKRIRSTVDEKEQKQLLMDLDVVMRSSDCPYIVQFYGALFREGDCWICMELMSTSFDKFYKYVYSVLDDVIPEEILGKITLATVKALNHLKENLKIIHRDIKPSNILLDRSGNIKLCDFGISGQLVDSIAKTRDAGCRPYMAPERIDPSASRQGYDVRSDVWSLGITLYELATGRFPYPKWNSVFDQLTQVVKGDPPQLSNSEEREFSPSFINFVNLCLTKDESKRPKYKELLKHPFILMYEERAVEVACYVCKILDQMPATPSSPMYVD
Description: (§1) The kinase activities of the compounds of the invention were measured using the 33PanQinase® Assay Service provided by ProQinase GmbH, Freiburg, Germany. Details of the assay conditions are disclosed on the website of ProQinase (https://www.proginase.com/products-services-biochemical-assay-services/kinase-assays). In brief, all kinase assays were performed in 96-well FlashPlates™ from PerkinElmer (Boston, MA, USA) in a 50 μl reaction volume. The reaction cocktail was pipetted in four steps in the following order: • 20 μl of assay buffer (standard buffer) • 5 μl of ATP solution (in H2O) • 5 μl of test compound (in 10% DMSO) • 20 μl enzyme/subtrate mix
(§2) The reaction cocktails were incubated at 30° C. for 60 minutes. The reaction is stopped with 50 μl of 2% (v/v) H3PO4, plates were aspirated and washed two times with 200 μl 0.9% (w/v) NaCl. Incorporation of ^33Pi was determined with a microplate scintillation counter (Microbeta, Wallac).
(§3) All assays were performed with a BeckmanCoulter/SAGIAN™ Core System.
(§4) In case of single concentration assays, the potency of the test compound is expressed as % residual activity. […] The fitting method used was a least-squares fit.
Inhibition potency against MKK4 is categorized as follows:
Assay at single concentration (100 nM):

BRaf = target: T2, BRaf (Homo sapiens, UniProt P15056); assay: 33PanQinase enzyme assay, BRaf; conditions: ratio IC50(BRaf)/IC50(MKK4)
T2 construct: purchased ProQinase GmbH, Freiburg, Germany (33PanQinase Assay Service)
T2 sequence (P15056 whole entry, species assumed): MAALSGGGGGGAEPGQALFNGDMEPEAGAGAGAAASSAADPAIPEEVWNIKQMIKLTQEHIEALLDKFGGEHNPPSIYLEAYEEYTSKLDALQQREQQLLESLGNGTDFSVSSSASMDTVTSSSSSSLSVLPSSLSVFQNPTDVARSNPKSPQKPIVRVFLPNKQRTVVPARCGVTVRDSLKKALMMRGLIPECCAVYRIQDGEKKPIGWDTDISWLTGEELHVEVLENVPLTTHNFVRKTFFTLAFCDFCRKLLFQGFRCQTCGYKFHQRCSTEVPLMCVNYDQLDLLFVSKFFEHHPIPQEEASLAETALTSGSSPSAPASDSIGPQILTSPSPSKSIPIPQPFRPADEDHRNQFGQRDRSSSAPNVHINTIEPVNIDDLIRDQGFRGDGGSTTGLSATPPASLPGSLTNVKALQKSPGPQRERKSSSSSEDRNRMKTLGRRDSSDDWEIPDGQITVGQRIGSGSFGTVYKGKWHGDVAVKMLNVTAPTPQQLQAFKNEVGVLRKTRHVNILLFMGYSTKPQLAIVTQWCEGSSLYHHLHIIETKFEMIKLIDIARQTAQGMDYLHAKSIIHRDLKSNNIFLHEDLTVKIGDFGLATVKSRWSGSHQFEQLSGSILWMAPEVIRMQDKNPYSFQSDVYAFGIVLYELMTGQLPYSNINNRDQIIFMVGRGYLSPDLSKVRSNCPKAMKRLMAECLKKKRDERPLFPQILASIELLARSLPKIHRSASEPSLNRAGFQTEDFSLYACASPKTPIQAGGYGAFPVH
Description: as §1, §2, §3, §4
(§5) Selectivity of test compounds against BRaf, JNK1 and MKK7, altogether denominated as off-targets was calculated by the ratio of IC50 (off-target)/IC50 (MKK4) and categorized as follows: […]

JNK1 = JNK1 (Homo sapiens, UniProt P45983); assay: 33PanQinase enzyme assay, JNK1; parameters: purchased ProQinase GmbH, Freiburg, Germany (33PanQinase Assay Service); conditions: ratio IC50(JNK1)/IC50(MKK4)
Sequence of JNK1 (P45983 whole entry): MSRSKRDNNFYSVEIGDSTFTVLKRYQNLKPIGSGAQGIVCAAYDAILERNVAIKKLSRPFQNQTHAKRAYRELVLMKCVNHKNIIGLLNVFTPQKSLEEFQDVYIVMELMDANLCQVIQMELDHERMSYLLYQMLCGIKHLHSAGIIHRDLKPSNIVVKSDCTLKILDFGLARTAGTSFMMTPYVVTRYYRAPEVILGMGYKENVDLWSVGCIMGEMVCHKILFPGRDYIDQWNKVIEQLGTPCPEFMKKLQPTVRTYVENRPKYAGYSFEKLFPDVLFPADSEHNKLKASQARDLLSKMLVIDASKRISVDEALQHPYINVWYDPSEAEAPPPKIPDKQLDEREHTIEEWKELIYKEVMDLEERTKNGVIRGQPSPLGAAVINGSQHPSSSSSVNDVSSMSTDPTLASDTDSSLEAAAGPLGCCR
Description: as §1, §2, §3, §4, §5

MKK7 = target: T3, MKK7 (Homo sapiens, UniProt O14733); assay: 33PanQinase enzyme assay, MKK7; parameters: purchased ProQinase GmbH, Freiburg, Germany (33PanQinase Assay Service); conditions: ratio IC50(MKK7)/IC50(MKK4)
T3 sequence (O14733 1-419): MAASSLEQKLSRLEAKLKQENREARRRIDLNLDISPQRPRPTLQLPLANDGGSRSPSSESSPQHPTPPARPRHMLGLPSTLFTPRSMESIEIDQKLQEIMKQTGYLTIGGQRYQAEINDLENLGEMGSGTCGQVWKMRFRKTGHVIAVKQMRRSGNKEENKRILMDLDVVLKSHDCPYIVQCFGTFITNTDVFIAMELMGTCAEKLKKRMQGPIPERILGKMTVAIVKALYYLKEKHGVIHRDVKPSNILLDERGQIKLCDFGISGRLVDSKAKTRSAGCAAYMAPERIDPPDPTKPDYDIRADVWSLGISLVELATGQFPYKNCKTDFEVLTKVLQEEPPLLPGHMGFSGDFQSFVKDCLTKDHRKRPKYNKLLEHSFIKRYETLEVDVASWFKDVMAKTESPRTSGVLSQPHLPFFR
Description: as §1, §2, §3, §4, §5

| Structure (SMILES) | IC50 (MKK4; assay 'IC50') [µM] | Selectivity Braf, IC50(off-target)/IC50(MKK4) (BRaf) | Selectivity JNK1, IC50(off-target)/IC50(MKK4) (JNK1) | Selectivity IVIKK7, IC50(off-target)/IC50(MKK4) (MKK7) | Potency MKK4 (IC50) (MKK4; assay 'IC50') | remaining activity at 0.1 µM (MKK4; single concentration 100 nM, read-out: Potency MKK4 (residual activity, assay at single concentration)) [%] |
| --- | --- | --- | --- | --- | --- | --- |
| CCCS(=O)(=O)Nc1c(F)ccc(C(=O)c2c[nH]c3ncc(-c4cnc(N5CC(O)C5)nc4)cc23)c1F [Example 205, N-(2,6-difluoro-3-(5-(2-(3-hydroxyazetidin-1-yl)pyrimidin-5-yl)-1H-pyrrolo[2,3-b]pyridine-3-carbonyl)phenyl)propane-1-sulfonamide] | 0.1 to 1 | ++ (100 ≥ IC50(off-target)/IC50(MKK4) > 10) | ++ (100 ≥ IC50(off-target)/IC50(MKK4) > 10) | +++ (IC50(off-target)/IC50(MKK4) > 100) | – | – |
| CCCS(=O)(=O)Nc1ccc(F)c(C(=O)c2c[nH]c3ncc(-c4ccoc4)cc23)c1F [Example 56] | 0.1 to 1 | ◯ (3 ≥ IC50(off-target)/IC50(MKK4)) | ◯ (3 ≥ IC50(off-target)/IC50(MKK4)) | +++ (IC50(off-target)/IC50(MKK4) > 100) | – | – |
| O=C(c1cccc(NS(=O)(=O)Cc2ccccc2)c1F)c1c[nH]c2ncc(-c3cccnc3)cc12 [Example 132, N-(2-fluoro-3-(5-(pyridin-3-yl)-1H-pyrrolo[2,3-b]pyridine-3-carbonyl)phenyl)-1-phenylmethanesulfonamide] | 0.1 to 1 | ++ (100 ≥ IC50(off-target)/IC50(MKK4) > 10) | ◯ (3 ≥ IC50(off-target)/IC50(MKK4)) | +++ (IC50(off-target)/IC50(MKK4) > 100) | – | – |
| CCCS(=O)(=O)Nc1c(F)ccc(C(=O)c2c[nH]c3ncc(-c4cnc(C)nc4Cl)cc23)c1F [Example 186, N-(3-(5-(4-chloro-2-methylpyrimidin-5-yl)-1H-pyrrolo[2,3-b]pyridine-3-carbonyl)-2,6-difluorophenyl)propane-1-sulfonamide] | < 0.1 | +++ (IC50(off-target)/IC50(MKK4) > 100) | +++ (IC50(off-target)/IC50(MKK4) > 100) | +++ (IC50(off-target)/IC50(MKK4) > 100) | – | – |
| CCCS(=O)(=O)Nc1ccc(F)c(C(=O)c2c[nH]c3ncc(-c4cncnc4)cc23)c1F [Example 91, N-(2,4-difluoro-3-(5-(pyrimidin-5-yl)-1H-pyrrolo[2,3-b]pyridine-3-carbonyl)phenyl)propane-1-sulfonamide] | 1 to 10 | ◯ (3 ≥ IC50(off-target)/IC50(MKK4)) | ◯ (3 ≥ IC50(off-target)/IC50(MKK4)) | ++ (100 ≥ IC50(off-target)/IC50(MKK4) > 10) | – | – |
| CCCS(=O)(=O)Nc1c(F)ccc(C(=O)c2c[nH]c3ncc(-c4cnc(SC)nc4)cc23)c1F [Example 195, N-(2,6-difluoro-3-(5-(2-(methylthio)pyrimidin-5-yl)-1H-pyrrolo[2,3-b]pyridine-3-carbonyl)phenyl)propane-1-sulfonamide] | < 0.1 | +++ (IC50(off-target)/IC50(MKK4) > 100) | +++ (IC50(off-target)/IC50(MKK4) > 100) | +++ (IC50(off-target)/IC50(MKK4) > 100) | – | – |
| CCCS(=O)(=O)Nc1c(F)ccc(C(=O)c2c[nH]c3ncc(-c4cnc(N5CC[C@H](O)C5)nc4)cc23)c1F [Example 203, (S)-N-(2,6-difluoro-3-(5-(2-(3-hydroxypyrrolidin-1-yl)pyrimidin-5-yl)-1H-pyrrolo[2,3-b]pyridine-3-carbonyl)phenyl)propane-1-sulfonamide] | < 0.1 | ++ (100 ≥ IC50(off-target)/IC50(MKK4) > 10) | +++ (IC50(off-target)/IC50(MKK4) > 100) | +++ (IC50(off-target)/IC50(MKK4) > 100) | – | – |
| CCCS(=O)(=O)Nc1c(F)ccc(C(=O)c2c[nH]c3ncc(-c4cnc(N5CCN(CCO)CC5)nc4)cc23)c1F [Example 198, N-(2,6-difluoro-3-(5-(2-(4-(2-hydroxyethyl)piperazin-1-yl)pyrimidin-5-yl)-1H-pyrrolo[2,3-b]pyridine-3-carbonyl)phenyl)propane-1-sulfonamide] | 0.1 to 1 | ++ (100 ≥ IC50(off-target)/IC50(MKK4) > 10) | ++ (100 ≥ IC50(off-target)/IC50(MKK4) > 10) | +++ (IC50(off-target)/IC50(MKK4) > 100) | – | – |
| CCCS(=O)(=O)Nc1c(F)ccc(C(=O)c2c[nH]c3ncc(-c4ccc(S(F)(F)(F)(F)F)cc4)cc23)c1F [Example 155, N-(2,6-difluoro-3-(5-(4-(pentafluoro-l6-sulfaneyl)phenyl)-1H-pyrrolo[2,3-b]pyridine-3-carbonyl)phenyl)propane-1-sulfonamide] | – | +++ (IC50(off-target)/IC50(MKK4) > 100) | ++ (100 ≥ IC50(off-target)/IC50(MKK4) > 10) | +++ (IC50(off-target)/IC50(MKK4) > 100) | ++·+ | – |
| CCCS(=O)(=O)Nc1ccc(F)c(C(=O)c2c[nH]c3ncc(-c4ccccc4C#N)cc23)c1F [Example 118, N-(3-(5-(2-cyanophenyl)-1H-pyrrolo[2,3-b]pyridine-3-carbonyl)-2,4-difluorophenyl)propane-1-sulfonamide] | 0.1 to 1 | ◯ (3 ≥ IC50(off-target)/IC50(MKK4)) | + (10 ≥ IC50(off-target)/IC50(MKK4) > 3) | +++ (IC50(off-target)/IC50(MKK4) > 100) | – | – |
| CCCS(=O)(=O)Nc1c(F)ccc(C(=O)c2c[nH]c3ncc(-c4cnc(OC)nc4OC)cc23)c1F [Example 236, N-(3-(5-(2,4-dimethoxypyrimidin-5-yl)-1H-pyrrolo[2,3-b]pyridine-3-carbonyl)-2,6-difluorophenyl)propane-1-sulfonamide] | < 0.1 | +++ (IC50(off-target)/IC50(MKK4) > 100) | +++ (IC50(off-target)/IC50(MKK4) > 100) | +++ (IC50(off-target)/IC50(MKK4) > 100) | – | – |
| CCCS(=O)(=O)Nc1ccc(F)c(C(=O)c2c[nH]c3ncc(-c4ccc5ccccc5c4)cc23)c1F [Example 99, N-(2,4-difluoro-3-(5-(naphthalen-2-yl)-1H-pyrrolo[2,3-b]pyridine-3-carbonyl)phenyl)propane-1-sulfonamide] | 0.1 to 1 | ◯ (3 ≥ IC50(off-target)/IC50(MKK4)) | ◯ (3 ≥ IC50(off-target)/IC50(MKK4)) | +++ (IC50(off-target)/IC50(MKK4) > 100) | – | – |
| CCCS(=O)(=O)Nc1ccc(F)c(C(=O)c2c[nH]c3ncc(-c4ccc(N)cc4)cc23)c1F [Example 121, N-(3-(5-(4-aminophenyl)-1H-pyrrolo[2,3-b]pyridine-3-carbonyl)-2,4-difluorophenyl)propane-1-sulfonamide] | 0.1 to 1 | – | – | – | – | – |
| CCCS(=O)(=O)Nc1ccc(F)c(C(=O)c2c[nH]c3ncc(-c4ccc(S(N)(=O)=O)cc4)cc23)c1F [Example 96, 4-(3-(2,6-difluoro-3-(propylsulfonamido)benzoyl)-pyrrolo[2,3-b]pyridin-5-yl)benzenesulfonamide] | – | – | – | – | – | 50 to 70 |
